From US20060058383A1 (priority 2004, published 2006) come the findings set out here.

Series [1] relates to respiration-deficient subclone HL-60/C6F cells. The series is described as follows: Depletion of cellular ATP pool (PCA extraction, HPLC). The class given is cell-based, human. As to conditions: 12 h incubation. As to the method:
(§1) Cells were incubated with the indicated concentrations of S-Glycolycin or 3-BrPA for 12 h. Cellular ATP was extracted by 0.4 N PCA, neutralized with KOH, and quantified by HPLC analysis. […] Incubation of cells with 0.03 mM S-Glycolycin completely depleted cellular ATP in both cell lines, while it required a 10-fold greater concentration (0.3 mM) of 3-BrPA to achieve the same degree of ATP depletion.

Series [2] has as its system HL-60 cells. Put plainly: Induction of apoptosis, annexin-V/PI flow cytometry. Particulars: 30 μM; 24 h. It counts as cell-based, human. How it is done: HL-60 cells were incubated with the indicated concentrations of S-Glycolycin or 3-BrPA for 24 h. Apoptosis was measured by double staining with annexin-V and PI, followed by flow cytometry analysis. […] Incubation of HL-60 cells with 30 μM of S-Glycolycin caused more 90% cells to undergo apoptosis in 24 h, whereas the same concentration of 3-BrPA killed less than 20% of the cells within the same time period.
(Flow cytometry measures light scatter and fluorescence of single cells or particles in a stream.)

In series [3] the test system is BAD phosphorylation in primary CLL cells. Put plainly: BAD dephosphorylation in primary leukemia cells, western blot. The class given is cell-based, human.
The test system of series [4] is colon cancer cells without p53 expression. The series is described as follows: Sensitivity of colon cancer cells without p53. The class given is cell-based, human. Particulars: separate experiment. As to the method: (§2) The effect of Glycolycin on human colon cancer cells (HCT116) and human brain tumor cells (U87MG) were tested using MTT assays for a 72 hour incubation. […] The IC50 value of S-Glycolycin for brain tumor U87MG cells is approximately 30 μM. […] This is of clinical significance, since the majority of human cancers are defective in p53 function and show reduced response to radiotherapy and certain anticancer agents.

Series [5] has as its system BAD phosphorylation (Ser112) in HL-60 cells. The series is described as follows: BAD phosphorylation at Ser112, western blot. It counts as cell-based, human. As to the method:
HL-60 cells were incubated with the indicated concentrations of each compound for 3 h. BAD and its phosphorylation at Ser112 were measured by western blot analysis, using the respective antibodies. β-Actin was also blotted as the protein loading control.
A time- and dose-dependent effect of S-Glycolycin on the expression level of pro-apoptotic factor BAD and its phosphorylation at Ser112 is provided in FIG. 18. HL-60 cells were incubated with the indicated concentrations of S-Glycolycin for various times. Total BAD protein and its phosphorylation at Ser112 were measured by western blot analysis using the respective antibodies. β-actin was also blotted as the protein loading control. […] Note that severe ATP depletion can be induced by S-Glycolycin at 30-50 μM, but not at 10 μM (FIG. 15).
(In general: In western blotting, separated proteins are transferred to a membrane and probed.)

The subject of series [6] is human colon cancer cells (HCT116). Put plainly: MTT assay, 72 hour incubation. It counts as cell-based. As to conditions: HCT-116. How it is done: as §2
Series [7] relates to human brain tumor cells (U87MG). Put plainly: MTT assay, 72 hour incubation. The class given is cell-based. As to conditions: U-87 MG. How it is done:
as §2
(In general: Tetrazolium dyes change colour on reduction, which living cells bring about.)

Series [8] has as its system parental HL-60 cells. Put plainly: Effect of glutamine on cytotoxic activity, apoptosis at 24 h. It counts as cell-based, human. As to conditions: 1 mM glutamine for 2 h. How it is done:
(§3) The effect of glutamine on the cytotoxic activity of S-Glycolycin in wild-type HL-60 cells and respiration-deficient C6F cells was compared. Parental HL-60 cells were incubated with the indicated concentrations of S-Glycolycin in the presence or absence of 1 mM glutamine for 2 h, washed, and re-cultured in fresh medium. Apoptosis was measured at 24 h. […] In FIG. 26, the respiration-deficient cells (HL-60-C6F) were incubated with the indicated concentrations of S-Glycolycin in the presence or absence of 1 mM glutamine for 2 h, washed, and re-cultured in fresh medium. Apoptosis was measured at 24 h. Thus, glutamine supplement offers some degree of protection for cells with competent mitochondrial function.

Series [9] has as its system respiration-deficient C6F cells (HL-60-C6F). The description is as above. Particulars: 1 mM glutamine for 2 h. It counts as cell-based, human. As to the method: as §3
Series [10] relates to primary CLL cells. The series is described as follows: MTT assay in primary leukemia cells. The class given is cell-based, human.
For series [11], the system named is HL-60/AR cells. Put plainly: MTT cytotoxicity, drug-resistant clone versus parental cells. The class given is cell-based, human. As to conditions: MTT assay. As to the method:
HL-60 cell line and its drug-resistant clone HL-60/AR were incubated with the indicated concentrations of doxorubicin, vincristine, and 3-BrPA for 72 h. Cytotoxicity was measured by MTT assay. […] Based on the teachings provided herein, studies may be performed to determine the sensitivity of HL-60/AR cells to Glycolycin.
Ara-C, a drug commonly used in the frontline treatment of leukemia, was used in parallel experiments. Cytotoxicity was measured by MTT assay.

The subject of series [12] is HL-60 cells with high Bcl-2 expression. Put plainly: MTT growth inhibition of Bcl-2 transfected cells. Particulars: MTT assay. The class given is cell-based, human. As to the method:
Cell growth inhibition was measured by MTT assay.
Increased expression of the anti-apoptotic molecule Bcl-2 has been associated with drug resistance in cancer cells. The over-expression of Bcl-2 in HL-60 cells was […] against the cytotoxic effect of S-Glycolycin. […] Thus, Glycolycin may be used to overcome drug resistance due to Bcl-2 over expression.

In series [13] the test system is human colon cancer cells (HCT116). Put plainly: Colony formation under hypoxic conditions, with radiation. The class given is cell-based. The source says:
It is known in the art that under hypoxic conditions, cancer cells become less sensitive to radiation therapy, partially due to up-regulation of expression of survival factors and less generation of free radicals without oxygen. However, under hypoxic conditions cancer cells depend on glycolysis for generation of ATP, which is the essential energy source for repair of the DNA damage caused by radiation. Thus, it is contemplated that Glycolycin can effectively deplete cellular ATP pool under hypoxic conditions and enhance the therapeutic activity of radiation. […] Combination of Glycolycin and radiation almost completely killed all cells plated (up to 200,000 cells/well). Thus, Glycolycin is an effective agent to enhance the effectiveness of radiotherapy.

The test system of series [14] is human leukemia HL-60 cell line. Put plainly: Depletion of cellular ATP pool (PCA extraction, HPLC). It counts as cell-based. As to the method:
as §1

Series [15] deals with human lymphoma cells (Raji). The series is described as follows: Sensitivity under hypoxic versus normoxic conditions, annexin-V/PI assay 24 h. It counts as cell-based. Particulars: 40 μM. How it is done:
(Annexin-V/PI assay, 24 h)
Cancer cells in solid tumors have to adapt to the hypoxia environment due to insufficient blood supply. Under hypoxia conditions, cancer cells use the glycolytic pathway to generate ATP without consuming oxygen. This metabolic adaptation also renders cancer cells relatively resistant to anticancer agents and radiation therapy, partially due to up-regulation of expression of cell survival factors such as HIF-1α. […] However, because under hypoxia condition cancer cells dependent on glycolysis for generation of ATP, it is contemplated that such cancer cells are vulnerable to glycolytic inhibition by Glycolycin. […] Thus, it is envisioned that Glycolycin can be use for effective treatment of many solid tumors, either as a single agent or in combination with other anticancer agents.

Turning to `O=C(O)O.O=C([O-])C(=O)CBr.[Na+]` [S-Glycolycin, Sodium 3-bromo-2-oxopropionate carbonic acid], the “concentration that completely depleted cellular ATP” value in [1] is reported as 0.03 mM; in series [14] (12 h incubation, HL-60), 0.03 mM. Moreover, the cells undergoing apoptosis in series [2] is listed as > 90%. For the same compound, the “BAD dephosphorylation, comparison” value in [3] is reported as “more active than 3-BrPA”. The “sensitivity compared with p53-expressing colon cancer cells” value in series [4] is “similarly sensitive”. For the same compound, the “change in BAD / phosphorylation at Ser112” value in series [5] (10 μM) was “did not cause any significant change”; in series [5] (50 μM) it was “almost complete dephosphorylation”. The “dephosphorylation of BAD, comparison” value in series [5] (3 h incubation) is “more effective than 3-BrPA”. The IC50 (as a rule, the concentration needed to halve the response being measured) in series [6] is 5 to 10 µM; in series [7] it was ~30 µM. Also, the “protection by glutamine from cytotoxic effect” value is recorded as “partial protection” in series [8] and “no protection” in series [9]. Besides, the “killing CLL cells as measured by IC50 values, comparison” value in [10] is recorded as “more potent than 3-BrPA”. The “sensitivity of HL-60/AR compared to parental HL-60 cells” value in series [11] is “equally sensitive”. Also, the “sensitivity of Bcl-2 transfected cells compared to transfected control (Neo)” value in series [12] is “remain sensitive”. In addition, the reduced colony formation result in series [13] (40 μM in combination with radiation (6 Gy), hypoxic conditions) is recorded as “more than 99.9%”. Moreover, the “sensitivity under hypoxic conditions” value in series [13] (drug alone, hypoxic versus normoxic) is recorded as “more sensitive”. Besides, in series [14] (not at 10 μM), the “concentration inducing severe ATP depletion” value fell in the range of 30 to 50 µM. The “sensitivity under hypoxic versus normoxic conditions” value in [15] is recorded as “significantly more sensitive”.
